Measurements reported in article PMC8279156, “Design, synthesis, HER2 inhibition and anticancer evaluation of new substituted 1,5-dihydro-4,1-benzoxazepines” (Journal of Enzyme Inhibition and Medicinal Chemistry, 2021).
Read-outs that look alike come from different tables or passages of the source.

Experiments:
[1] = tested on: HCT-116 human colon cancer cell line; parameters: method as in PMID 21126804; conditions: mean ± SD; cited from earlier work
[2] = tested on: MCF-7 human breast cancer cell line; conditions: cited from earlier work
isolated HER2 = isolated HER2 (Homo sapiens, UniProt P04626); test: HER2 inhibition assay, radiometric protein kinase assay (33PanQinase Activity Assay); format: biochemical; conditions: isolated HER2, radiometric assay, 10 concentrations in singlicate
Chain of isolated HER2 (P04626 23-1255): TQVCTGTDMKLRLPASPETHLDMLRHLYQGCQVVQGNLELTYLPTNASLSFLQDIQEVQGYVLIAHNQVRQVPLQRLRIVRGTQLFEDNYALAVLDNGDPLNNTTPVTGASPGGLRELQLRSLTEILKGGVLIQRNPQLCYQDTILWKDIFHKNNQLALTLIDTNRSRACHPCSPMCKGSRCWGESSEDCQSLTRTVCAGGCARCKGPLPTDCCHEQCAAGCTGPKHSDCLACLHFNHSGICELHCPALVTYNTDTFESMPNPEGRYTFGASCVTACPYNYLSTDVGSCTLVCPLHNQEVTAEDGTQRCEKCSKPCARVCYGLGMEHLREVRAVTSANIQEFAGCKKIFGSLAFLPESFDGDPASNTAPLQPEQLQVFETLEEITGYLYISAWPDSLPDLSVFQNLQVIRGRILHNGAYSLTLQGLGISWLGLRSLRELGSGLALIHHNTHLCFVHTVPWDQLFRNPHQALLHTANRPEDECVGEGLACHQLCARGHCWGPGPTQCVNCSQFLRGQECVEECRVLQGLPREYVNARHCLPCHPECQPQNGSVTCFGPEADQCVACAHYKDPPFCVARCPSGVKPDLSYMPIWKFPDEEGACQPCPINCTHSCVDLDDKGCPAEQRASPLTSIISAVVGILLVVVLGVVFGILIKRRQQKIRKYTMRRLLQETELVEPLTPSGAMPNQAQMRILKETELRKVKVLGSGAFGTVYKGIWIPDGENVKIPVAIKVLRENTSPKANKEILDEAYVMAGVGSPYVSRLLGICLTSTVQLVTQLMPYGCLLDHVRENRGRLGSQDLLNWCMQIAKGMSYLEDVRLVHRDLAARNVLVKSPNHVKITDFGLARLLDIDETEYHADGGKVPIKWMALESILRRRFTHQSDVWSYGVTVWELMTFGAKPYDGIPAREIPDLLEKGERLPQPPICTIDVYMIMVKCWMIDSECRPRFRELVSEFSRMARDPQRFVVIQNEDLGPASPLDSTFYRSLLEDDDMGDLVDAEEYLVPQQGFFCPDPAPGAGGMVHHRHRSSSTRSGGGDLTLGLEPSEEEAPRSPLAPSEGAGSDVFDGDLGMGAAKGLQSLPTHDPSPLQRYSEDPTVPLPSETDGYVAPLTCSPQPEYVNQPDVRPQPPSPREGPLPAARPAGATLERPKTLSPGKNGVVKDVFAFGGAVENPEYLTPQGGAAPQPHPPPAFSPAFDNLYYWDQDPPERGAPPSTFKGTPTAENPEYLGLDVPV
Method: The IC50 profile of the target compounds was determined using isolated HER2. IC50 values were measured by testing 10 concentrations (1 × 10 ^−4 M to 3 × 10 ^−9 M) of each compound in singlicate. A radiometric protein kinase assay (33PanQinase® Activity Assay) was used for measuring the kinase activity of HER2. The assay was performed in 96-well FlashPlatesTM from PerkinElmer (Boston, MA) in a 50 µl reaction volume. […] The reaction cocktails were incubated at 30 °C for 60 min. The reaction was halted with 50 µl of 2% (v/v) H3PO4, plates were aspirated and washed two times with 200 µl 0.9% (w/v) NaCl. Incorporation of ^33Pi was determined with a microplate scintillation counter (Microbeta, Wallac, Waltham, MA).
Human epidermal growth factor receptor 2 (HER2) is overexpressed in about 20% of all breast cancers. […] This prompted us to evaluated compounds 7–9 for their in vitro HER2 inhibitory effect. The IC50 profile of the target compounds was determined against isolated HER2 using a radiometric assay (Table 1).

[3] = tested on: A-375 human melanoma cancer cell line; test: Proliferation assay (sulphorhodamine-B) in A-375; format: cell-based; conditions: 72 h of treatment, mean ± SD, read-out: IC50 A375
Method: MCF-7, HCT-116, A-375 and SKBR cells were grown at 37 °C in an atmosphere containing 5% CO2, with Dulbecco’s modified Eagle Medium (DMEM) (Gibco, Grand Island, NY) supplemented with 10% heat-inactivated foetal bovine serum (FBS) (Gibco), 2% L-glutamine, 2.7% sodium bicarbonate, 1% Hepes buffer, 40 mg/L gentamicin and 500 mg/L ampicillin.
Compounds were dissolved in DMSO and stored at −20 °C. For each experiment, the stock solutions were further diluted in medium to obtain the desired concentrations. The final solvent concentration in cell culture was ≤ 0.1% v/v of DMSO, a concentration without any effect on cell replication. Parallel cultures of MCF-7, HCT-116, A375 and SKBR-3 cells in medium with DMSO were used as controls.
The effect of the compounds on cell viability was assessed using the sulphorhodamine-B colorimetric assay. Cells suspension (1 × 10^3 cells/well) were seeded onto 24-well plates and incubated for 24 h. The cells were then treated with different concentrations of drugs in their respective culture medium and maintained with the treatment for 3 days. Three days later, wells were aspirated and fresh medium and drug were added. Then cell cultures were maintained for 3 additional days. Thereafter, a Titertek Multiscan (Flow, Irvine, CA) at 492 nm was used. The linearity of the SRB assay was evaluated with a cell number for each cell stock before each cell growth experiment. The IC50 values were calculated from semi-logarithmic dose–response curves by linear interpolation. All the experiments were plated in triplicate wells and were carried out twice.
We then investigated the effects of the target compounds on cell proliferation on the human breast cancer cell lines MCF-7 and SKBR-3, the human colon carcinoma cell line HCT-116 and the human malignant melanoma cell line A-375. The antiproliferative activity of 7–9 was evaluated using sulphorhodamine-B colorimetric assay after 72 h of treatment (Table 3).
All experiments were conducted in duplicate and gave similar results. The data are mean ± SD of three independent determinations. MCF-7: human breast cancer cell line; SKBR3: human breast cancer cell line; HCT-116: human colon cancer cell line and A-375: human melanoma cancer cell line.

[4] = tested on: SKBR3 human breast cancer cell line; parameters: method as in PMID 24946763; conditions: mean ± SD; cited from earlier work

IC50 (isolated HER2): 27900 nM
IC50 [3]: 1050 ± 10 nM
Structure (SMILES): O=[N+]([O-])c1ccc(S(=O)(=O)N2CC(n3cnc4c(Cl)nc(Cl)nc43)OCc3ccccc32)cc1 (racemic) [Compound 3, (RS)-2,6-dichloro-9-[1-(p-nitrobenzenesulfonyl)-1,2,3,5-tetrahydro-4,1-benzoxazepine-3-yl]-9H-purine]
IC50 [1]: 570 ± 20 nM
IC50 ([2]; mean ± SD, read-out: IC50 MCF-7): 350 ± 10 nM
IC50 ([2]; previously described compounds, introduction, no reference number printed at the values, read-out: IC50 against the MCF-7 cell line): 355 nM
IC50 [4]: 330 nM
